Test results from the supplement of paper PMC8882468.

Key:
Experiment in all cases: CTG-3D luminescence at 96 h relative to day-0 seeding control (ratio to day 0); higher = more growth / less cytotoxicity; PDxO 3D drug screen, 96 h, CTG-3D normalised to day-0 seeding control.
[1] = test system: MDA-MB-231
[2] = test system: HCI-005.E2 (organoid from a breast cancer xenograft with a HER2-positive history)
[3] = test system: HCI-017.E2 (organoid from an ER-positive breast cancer xenograft)
[4] = test system: HCI-011.E2 (organoid from an ER-positive breast cancer xenograft)
[5] = test system: HCI-008 (organoid from a HER2-enriched breast cancer xenograft)
[6] = test system: HCI-015 (organoid from a triple-negative breast cancer xenograft)
[7] = test system: HCI-027 (organoid from a triple-negative breast cancer xenograft)

CCc1c2c(nc3ccc(O)cc13)-c1cc3c(c(=O)n1C2)COC(=O)[C@]3(O)CC [SN-38]
CTG-3D luminescence at 96 h
Details | 12.5 pM | 0.00025 µM | 0.005 µM | 0.1 µM | 1 µM | 10 µM | 100 µM | 625 fM
[1] | 4.45 | 4.3 | 3.73 | 2.38 | 1.55 | 0.665 | 0.568 | 4.4
[2] | 1.65 | 1.65 | 1.41 | 1.38 | 1.17 | 0.21 | 0.199 | 1.65
[3] | 1.58 | 1.73 | 1.5 | 1.44 | 1.16 | 0.47 | 0.407 | 1.77
[4] | 1.25 | 1.54 | 1.4 | 1.48 | 0.834 | 0.362 | 0.218 | 1.46

CTG-3D luminescence at 96 h
Details | 12.5 pM | 0.00025 µM | 0.005 µM | 0.1 µM | 1 µM | 10 µM | 100 µM | 625 fM
[3], days in culture: 85 | 2.43 | 2.66 | 1.7 | 2.32 | 1.23 | 0.584 | 0.428 | 2.19
[4], days in culture: 74 | 2.34 | 1.84 | 2.09 | 1.85 | 1.06 | 0.399 | 0.23 | 2.21
[5], days in culture: 228 | 1.72 | 1.6 | 0.948 | 0.349 | 0.21 | 0.132 | 0.111 | 1.93
[5], days in culture: 244 | 1.28 | 1.83 | 1.31 | 0.575 | 0.202 | 0.12 | 0.119 | 2.23
[6], days in culture: 172 | 2.31 | 1.87 | 1.68 | 0.173 | 0.101 | 0.0365 | 0.0336 | 2.79
[6], days in culture: 191 | 1.52 | 1.32 | 0.538 | 0.0896 | 0.0635 | 0.0399 | 0.0305 | 1.5
[6], days in culture: 218 | 2.35 | 1.74 | 1.05 | 0.109 | 0.0491 | 0.0388 | 0.0388 | 1.97
[7], days in culture: 176 | 1.94 | 1.79 | 1.19 | 0.371 | 0.104 | 0.0345 | 0.0407 | 1.74
[7], days in culture: 194 | 1.81 | 1.39 | 0.614 | 0.307 | 0.0805 | 0.0428 | 0.0357 | 1.66
[7], days in culture: 201 | 2.6 | 2.5 | 0.717 | 0.272 | 0.0912 | 0.0373 | 0.029 | 2.46

C=CC(=O)N1CCC[C@@H](n2nc(-c3ccc(Oc4ccccc4)cc3)c3c(N)ncnc32)C1 [ibrutinib]
CTG-3D luminescence at 96 h
Details | 12.5 pM | 0.00025 µM | 0.005 µM | 0.1 µM | 1 µM | 10 µM | 100 µM | 625 fM
[1] | 4.49 | 4.45 | 4.49 | 4.64 | 4.82 | 4.66 | -0.0103 | 4.55
[2] | 1.47 | 2 | 1.22 | 1.93 | 1.38 | 0.629 | -0.00377 | 1.61
[3] | 1.84 | 2.24 | 2.27 | 2.21 | 2.29 | 1.49 | 0.00316 | 2.16
[4] | 1.7 | 1.71 | 1.45 | 2 | 2.1 | 2.03 | 0.00409 | 1.84

CTG-3D luminescence at 96 h
Details | 12.5 pM | 0.00025 µM | 0.005 µM | 0.1 µM | 1 µM | 10 µM | 100 µM | 625 fM
[3], days in culture: 85 | 2.54 | 2.97 | 2.31 | 2.54 | 1.88 | 1.6 | 0.0338 | 2.31
[4], days in culture: 74 | 2.44 | 2.67 | 1.96 | 2.48 | 2.83 | 2.44 | 0.00445 | 2.75
[5], days in culture: 228 | 1.59 | 1.84 | 1.21 | 1.18 | 1.26 | 1 | -0.0059 | 1.66
[5], days in culture: 244 | 1.25 | 1.71 | 1.76 | 1.65 | 1.52 | 1.3 | -0.0038 | 1.98
[6], days in culture: 172 | 2.54 | 1.92 | 2.32 | 1.06 | 1.37 | 1.14 | 7.09e-05 | 2.36
[6], days in culture: 191 | 1.91 | 1.22 | 1.64 | 1.03 | 0.827 | 0.68 | 0.00148 | 1.52
[6], days in culture: 218 | 1.88 | 1.37 | 1.76 | 1.6 | 1.4 | 1.33 | 0.00244 | 1.81
[7], days in culture: 176 | 1.63 | 1.35 | 2.52 | 1.59 | 1.09 | 0.54 | 0.00595 | 1.73
[7], days in culture: 194 | 1.68 | 1.52 | 1.52 | 1.6 | 1.98 | 1.69 | 0.00765 | 1.76
[7], days in culture: 201 | 2.12 | 1.48 | 1.94 | 1.93 | 1.49 | 1.41 | 0.00768 | 2.11
